Results taken from patent publication US4442044A, “Process for preparing monoesters and diesters of N-alkyl substituted amino methyl phosphonic acid” (priority 1983, dated 1984).

What was measured:
Format in all cases: in vivo
Barnyardgrass [1] = experiment: post-emergent herbicidal activity, greenhouse
In short: (§1)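 Post-emergence foliar spray at tabulated application rates, using aliquots of a 1.0% stock in acetone, THF or water plus ~0.4% emulsifier, applied to 2–3-week-old greenhouse plants. Plant injury was rated relative to controls roughly two and four weeks after treatment.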

Canada Thistle [2] = experiment: post-emergent herbicidal activity, greenhouse; details: Table I, 4 WAT
In short: as §1

Cocklebur [3] = experiment: post-emergent herbicidal activity, greenhouse
In short: as §1

Downy Brome [4] = experiment: post-emergent herbicidal activity, greenhouse
In short: as §1

Hemp Sesbania = experiment: post-emergent herbicidal activity, greenhouse; details: Table II
In short: as §1

Johnsongrass [5] = experiment: post-emergent herbicidal activity, greenhouse; details: Table I, 4 WAT
In short: as §1

Lambsquarters [6] = experiment: post-emergent herbicidal activity, greenhouse
In short: as §1

Morningglory [7] = experiment: post-emergent herbicidal activity, greenhouse
In short: as §1

Panicum Spp = experiment: post-emergent herbicidal activity, greenhouse; details: Table II
In short: as §1

Quackgrass [8] = experiment: post-emergent herbicidal activity, greenhouse; details: Table I, 4 WAT
In short: as §1

Rice = experiment: post-emergent herbicidal activity, greenhouse; details: Table II
In short: as §1

Smartweed [9] = experiment: post-emergent herbicidal activity, greenhouse
In short: as §1

Sorghum = experiment: post-emergent herbicidal activity, greenhouse; details: Table II
In short: as §1

Soybean = experiment: post-emergent herbicidal activity, greenhouse; details: Table II
In short: as §1

Sugar Beet = experiment: post-emergent herbicidal activity, greenhouse; details: Table II
In short: as §1

Velvetleaf [10] = experiment: post-emergent herbicidal activity, greenhouse
In short: as §1

Wheat = experiment: post-emergent herbicidal activity, greenhouse; details: Table II
In short: as §1

Wild Buckwheat = experiment: post-emergent herbicidal activity, greenhouse; details: Table II
In short: as §1

Yellow Nutsedge [11] = experiment: post-emergent herbicidal activity, greenhouse; details: Table I, 4 WAT
In short: as §1

Barnyardgrass [12] = experiment: pre-emergent herbicidal activity, soil incorporation; details: Table III, 2 WAT, 11.2 kg/h
Source text: (§2) A good grade of top soil is placed in aluminum pans and compacted to a depth of 0.95 to 1.27 cm. from the top of each pan. A predetermined number of seeds or vegetative propagules of each of several plant species are placed on top of the soil in each pan and then pressed down. Herbicidal compositions prepared as in the previous example are applied by admixture with or incorporation in the top layer of soil.
(§3) In this method, the soil required to cover the seeds and propagules is weighed and admixed with a herbicidal composition containing a known amount of the active ingredient (compound of this invention). The pans are then filled with the admixture and leveled. Watering is carried out by permitting the soil in the pans to absorb moisture through apertures in the pan bottoms. The seed and propagule containing pans are placed on a wet sand bench and maintained for approximately two weeks under ordinary conditions of sunlight and watering. At the end of this period, the number of emerged plants of each species is noted and compared to an untreated control.
(§4) The pre-emergent herbicidal activity index used below is based upon average percent control of each species as follows: […]

Canada Thistle [13] = experiment: as above; details: Table III, 2 WAT, 11.2 kg/h
Source text: as §2, §3, §4

Cocklebur [14] = experiment: as above; details: Table III, 2 WAT, 11.2 kg/h
Source text: as §2, §3, §4

Downy Brome [15] = experiment: as above; details: Table III, 2 WAT, 11.2 kg/h
Source text: as §2, §3, §4

Johnsongrass [16] = experiment: as above; details: Table III, 2 WAT, 11.2 kg/h
Source text: as §2, §3, §4

Lambsquarters [17] = experiment: as above; details: Table III, 2 WAT, 11.2 kg/h
Source text: as §2, §3, §4

Morningglory [18] = experiment: as above; details: Table III, 2 WAT, 11.2 kg/h
Source text: as §2, §3, §4

Quackgrass [19] = experiment: as above; details: Table III, 2 WAT, 11.2 kg/h
Source text: as §2, §3, §4

Smartweed [20] = experiment: as above; details: Table III, 2 WAT, 11.2 kg/h
Source text: as §2, §3, §4

Velvetleaf [21] = experiment: as above; details: Table III, 2 WAT, 11.2 kg/h
Source text: as §2, §3, §4

Yellow Nutsedge [22] = experiment: as above; details: Table III, 2 WAT, 11.2 kg/h
Source text: as §2, §3, §4

[23] = Table II, 2** WAT, 0.056 kg/h, applied in 100 GPA THF
[24] = 2** WAT, 0.056 kg/h, applied in 100 GPA THF

CCOC(=O)CNCP(=O)(O)OC(C#N)CC (stereo not drawn) [Example 8, glycine, N-[[(1-cyanopropoxy)hydroxyphosphinyl]methyl],ethyl ester]
0 (1-24% control): pre-emergent herbicidal activity index (Barnyardgrass [12]) | pre-emergent herbicidal activity index (Cocklebur [14]) | pre-emergent herbicidal activity index (Downy Brome [15]) | pre-emergent herbicidal activity index (Lambsquarters [17]) | pre-emergent herbicidal activity index (Morningglory [18]) | pre-emergent herbicidal activity index (Smartweed [20]) | pre-emergent herbicidal activity index (Velvetleaf [21])
0 (0-24% control): post-emergent herbicidal activity index (Cocklebur [3]; [23]) | post-emergent herbicidal activity index (Downy Brome [4]; [23]) | post-emergent herbicidal activity index (Hemp Sesbania; [24]) | post-emergent herbicidal activity index (Lambsquarters [6]; [23]) | post-emergent herbicidal activity index (Morningglory [7]; [23]) | post-emergent herbicidal activity index (Panicum Spp; [24]) | post-emergent herbicidal activity index (Rice; [24]) | post-emergent herbicidal activity index (Smartweed [9]; [23]) | post-emergent herbicidal activity index (Sorghum; [24]) | post-emergent herbicidal activity index (Soybean; [24]) | post-emergent herbicidal activity index (Sugar Beet; [24]) | post-emergent herbicidal activity index (Velvetleaf [10]; [23]) | post-emergent herbicidal activity index (Wild Buckwheat; [24])
3 (75-100% control): pre-emergent herbicidal activity index (Canada Thistle [13])
3 (75-99% control): post-emergent herbicidal activity index (Barnyardgrass [1]; Table I, 4 WAT, 5.6 kg/h) | post-emergent herbicidal activity index (Cocklebur [3]; Table I, 4 WAT, 5.6 kg/h) | post-emergent herbicidal activity index (Cocklebur [3]; Table II, 4 WAT, 1.12 kg/h) | post-emergent herbicidal activity index (Downy Brome [4]; Table I, 4 WAT, 5.6 kg/h) | post-emergent herbicidal activity index (Downy Brome [4]; Table II, 4 WAT, 1.12 kg/h) | post-emergent herbicidal activity index (Downy Brome [4]; Table II, 4 WAT, 5.6 kg/h) | post-emergent herbicidal activity index (Johnsongrass [5]; 5.6 kg/h) | post-emergent herbicidal activity index (Lambsquarters [6]; Table II, 4 WAT, 1.12 kg/h) | post-emergent herbicidal activity index (Morningglory [7]; Table I, 4 WAT, 11.2 kg/h) | post-emergent herbicidal activity index (Morningglory [7]; Table II, 4 WAT, 1.12 kg/h) | post-emergent herbicidal activity index (Morningglory [7]; Table II, 4 WAT, 5.6 kg/h) | post-emergent herbicidal activity index (Rice; 4 WAT, 1.12 kg/h) | post-emergent herbicidal activity index (Smartweed [9]; Table II, 4 WAT, 1.12 kg/h) | post-emergent herbicidal activity index (Soybean; 4 WAT, 1.12 kg/h) | post-emergent herbicidal activity index (Velvetleaf [10]; Table I, 4 WAT, 5.6 kg/h) | post-emergent herbicidal activity index (Velvetleaf [10]; Table II, 4 WAT, 1.12 kg/h) | post-emergent herbicidal activity index (Velvetleaf [10]; Table II, 4 WAT, 5.6 kg/h) | post-emergent herbicidal activity index (Wild Buckwheat; 4 WAT, 1.12 kg/h) | post-emergent herbicidal activity index (Yellow Nutsedge [11]; 5.6 kg/h)
4 (100% control): post-emergent herbicidal activity index (Barnyardgrass [1]; Table I, 4 WAT, 11.2 kg/h) | post-emergent herbicidal activity index (Barnyardgrass [1]; Table II, 4 WAT, 1.12 kg/h) | post-emergent herbicidal activity index (Barnyardgrass [1]; Table II, 4 WAT, 5.6 kg/h) | post-emergent herbicidal activity index (Canada Thistle [2]; 5.6 kg/h) | post-emergent herbicidal activity index (Canada Thistle [2]; 11.2 kg/h) | post-emergent herbicidal activity index (Cocklebur [3]; Table I, 4 WAT, 11.2 kg/h) | post-emergent herbicidal activity index (Cocklebur [3]; Table II, 4 WAT, 5.6 kg/h) | post-emergent herbicidal activity index (Downy Brome [4]; Table I, 4 WAT, 11.2 kg/h) | post-emergent herbicidal activity index (Hemp Sesbania; 4 WAT, 5.6 kg/h) | post-emergent herbicidal activity index (Johnsongrass [5]; 11.2 kg/h) | post-emergent herbicidal activity index (Lambsquarters [6]; Table I, 4 WAT, 5.6 kg/h) | post-emergent herbicidal activity index (Lambsquarters [6]; Table I, 4 WAT, 11.2 kg/h) | post-emergent herbicidal activity index (Lambsquarters [6]; Table II, 4 WAT, 5.6 kg/h) | post-emergent herbicidal activity index (Panicum Spp; 4 WAT, 1.12 kg/h) | post-emergent herbicidal activity index (Panicum Spp; 4 WAT, 5.6 kg/h) | post-emergent herbicidal activity index (Quackgrass [8]; 5.6 kg/h) | post-emergent herbicidal activity index (Quackgrass [8]; 11.2 kg/h) | post-emergent herbicidal activity index (Rice; 4 WAT, 5.6 kg/h) | post-emergent herbicidal activity index (Smartweed [9]; Table I, 4 WAT, 5.6 kg/h) | post-emergent herbicidal activity index (Smartweed [9]; Table I, 4 WAT, 11.2 kg/h) | post-emergent herbicidal activity index (Smartweed [9]; Table II, 4 WAT, 5.6 kg/h) | post-emergent herbicidal activity index (Sorghum; 4 WAT, 1.12 kg/h) | post-emergent herbicidal activity index (Sorghum; 4 WAT, 5.6 kg/h) | post-emergent herbicidal activity index (Soybean; 4 WAT, 5.6 kg/h) | post-emergent herbicidal activity index (Sugar Beet; 4 WAT, 1.12 kg/h) | post-emergent herbicidal activity index (Sugar Beet; 4 WAT, 5.6 kg/h) | post-emergent herbicidal activity index (Velvetleaf [10]; Table I, 4 WAT, 11.2 kg/h) | post-emergent herbicidal activity index (Wheat; 4 WAT, 1.12 kg/h) | post-emergent herbicidal activity index (Wheat; 4 WAT, 5.6 kg/h) | post-emergent herbicidal activity index (Wild Buckwheat; 4 WAT, 5.6 kg/h) | post-emergent herbicidal activity index (Yellow Nutsedge [11]; 11.2 kg/h)
1 (25-49% control): post-emergent herbicidal activity index (Barnyardgrass [1]; [23]) | post-emergent herbicidal activity index (Wheat; [24]) | pre-emergent herbicidal activity index (Yellow Nutsedge [22])
2 (50-74% control): post-emergent herbicidal activity index (Hemp Sesbania; 4 WAT, 1.12 kg/h) | post-emergent herbicidal activity index (Morningglory [7]; Table I, 4 WAT, 5.6 kg/h) | pre-emergent herbicidal activity index (Johnsongrass [16]) | pre-emergent herbicidal activity index (Quackgrass [19])
